Counter-ions that a name gives are not always drawn. Like-named read-outs stand apart in the source and are kept apart here. Each block holds one compound with its values, some of them ahead of it.
Key:
CEM or HEY cells = experiment: Cytotoxicity of salicylhydrazides (Table 5); type: cell-based; conditions: Homo sapiens
From the text: Human prostate cancer cells (PC3, p53 null, AR−; DU145, p53 mutant, AR−; and LNCaP, p53 wild-type, AR+) and breast cancer cells (MCF-7, overexpressed wild-type p53, ER+; MDA-MB-468, p53 mutant, […]; and MDA-MB-435, p53 mutant, ER−) were obtained from American Type Cell Culture (Manassas, Va.). The human ovarian carcinoma cell line (HEY) naturally resistant to cisplatin (CDDP) was kindly provided by Dr. Dubeau (University of Southern California Norris Cancer Center; Buick et al. (1985) Cancer Res. 45:3668-76 and Hamaguchi et al. (1993) Cancer Res. 53:5225-32). The results with CEM cells were previously described (Neamati et al. (1998) J. Med. Chem. 41:3202-9). Cells were maintained as monolayer cultures in RPMI 1640 supplemented with 10% fetal bovine serum (Gemini-Bioproducts, Woodland, Calif.) and 2 mmol/L L-glutamine at 37° C. in a humidified atmosphere of 5% CO2. To remove the adherent cells from the flask for passaging and counting, cells were washed with PBS without calcium or magnesium, incubated with a small volume of 0.25% trypsin-EDTA solution (Sigma-Aldrich, St. Louis, Mo.) for 5 to 10 minutes, and washed with culture medium and centrifuged. All experiments were done using cells in exponential cell growth.
(§1) Cytotoxicity was assessed by a 3-(4,5-dimethylthiazol-2-yl)-2,5-diphenyltetrazolium bromide assay as previously described (Carmichael et al. (1987) Cancer Res. 47:936-42). Briefly, cells were seeded in 96-well microtiter plates (PC3 and DU145 at 5,000 cells/well and LNCaP at 10,000 cells/well; breast and ovarian cells at 4,000 cells/well) and allowed to attach. Cells were subsequently treated with a continuous exposure to the corresponding drug for 72 hours. A 3-(4,5-dimethylthiazol-2-yl)-2,5-diphenyltetrazolium bromide solution (at a final concentration of 0.5 mg/mL) was added to each well and cells were incubated for 4 hours at 37° C. After removal of the medium, DMSO was added and the absorbance was read at 570 nm. All assays were done in triplicate. The IC50 was then determined for each drug from a plot of log(drug concentration) versus percentage of cell kill.

[1] = test system: MDA-MB-435 breast cancer cells; experiment: MTT cytotoxicity assay, MDA-MB-435; type: cell-based, human; conditions: MTT, 72 h, read-out: IC50
Experimental: The sensitivity of a panel of seven human cancer cell lines to SC144 was assessed by MTT-assay. […] The sensitivity towards SC144 was time- and dose-dependent.
as §1
(§2) Cytotoxicity was assessed by a 3-(4,5-dimethylthiazol-2-yl)-2,5-diphenyltetrazolium bromide (MTT) assay as previously described.^9 Briefly, cells were seeded in 96-well microtiter plates and allowed to attach. Cells were subsequently treated with continuous exposure to the corresponding drug for 72 h. An MTT solution (at a final concentration of 0.5 mg/mL) was added to each well, and cells were incubated for 4 h at 37° C. After removal of the medium, DMSO was added and the absorbance was read at 570 nm. All assays were done in triplicate. The IC50 was then determined for each drug from a plot of log (drug concentration) versus percentage of cells killed.

HT29 colon cancer cells = experiment: MTT cytotoxicity assay, HT 29; type: cell-based, human; conditions: 72 h
From the text: (§3) Human breast cancer cells MDA-MB-435 and colon cancer HT29, p53 mutant were purchased from the American Type Cell Culture (Manassas, Va.). The HCT116 P53^+/+ and HCT116 P53^−/− cells were kindly provided by Dr. Bert Vogelstein (Johns Hopkins Medical Institutions, Baltimore, Md.). Human prostate cancer cells, LNCaP, were kindly provided by Richard Cote (University of Southern California Keck School of Medicine). Cells were maintained as monolayer cultures in RPMI 1640 media supplemented with 10% fetal bovine serum (Gemini-Bioproducts, Woodland, Calif.) and 2 mmol/L L-glutamine at 37° C. in a humidified atmosphere of 5% CO2. To remove the adherent cells from the flask for passaging and counting, cells were washed with PBS without calcium or magnesium, incubated with a small volume of 0.25% trypsin-EDTA solution (Sigma-Aldrich, St. Louis, Mo.) for 5-10 min, and washed with culture medium and centrifuged. All experiments were performed using cells at exponential growth stage. Cells were routinely checked for mycoplasma contamination using a PCR-based assay (Stratagene, Cambridge, UK).
as §2

[2] = test system: HCT 116 p53^+/+ colon cancer cells; experiment: MTT cytotoxicity assay, HCT 116 p53+/+; type: cell-based, human; conditions: 72 h
From the text: as §3, §2

[3] = test system: HCT 116 p53^−/− colon cancer cells; experiment: MTT cytotoxicity assay, HCT 116 p53-/-; type: cell-based, human; conditions: 72 h
From the text: as §3, §2

[4] = test system: human cancer cell lines (MDA-MB-435 and three colon cancer cells); experiment: MTT assay, panel of breast, colon and prostate cell lines (Example V); type: cell-based
Experimental: All new compounds were tested in four human cancer cell lines, a breast cancer cell, MDA-MB-435, and three colon cancer cells.
as §2

Structure (SMILES): O=C(COc1ccccc1Cl)NNC(=O)c1cc2ccccc2cc1O [SC34]
IC50 (CEM or HEY cells): 20 µM

Structure (SMILES): Cc1cccc(C(=O)NNC(O)c2ccc(N3C(=O)c4ccccc4C3=O)cc2)c1 (stereo not shown) [SC29]
IC50 (CEM or HEY cells): 7 ± 2 µM

melting point: 162.5 °C
Structure (SMILES): O=C(NNc1nc2ccccc2n2cccc12)c1c[nH]c2ccccc12 [SC158, 1H-Indole-3-carboxylic acid N′-pyrrolo[1,2-a]quinoxalin-4-yl-hydrazide]
IC50 ([1]; Homo sapiens): > 20 µM | IC50 (HT29 colon cancer cells; Homo sapiens): > 20 µM | IC50 ([2]; Homo sapiens): > 20 µM | IC50 ([3]; Homo sapiens): > 20 µM

Structure (SMILES): COc1ccc2oc(=O)c(C(=O)NNC(=O)c3cccc(C)c3)cc2c1 [SC35]
IC50 (CEM or HEY cells): 12 ± 2 µM

melting point: 164.5 °C
Structure (SMILES): NCCC(=O)NNc1nc2ccccc2n2cccc12 [SC154, 3-Amino-propionic acid N′-pyrrolo[1,2-a]quinoxalin-4-yl-hydrazide]
IC50 ([1]; Homo sapiens): > 20 µM | IC50 (HT29 colon cancer cells; Homo sapiens): > 20 µM | IC50 ([2]; Homo sapiens): > 20 µM | IC50 ([3]; Homo sapiens): > 20 µM

melting point: 198.5 °C
Structure (SMILES): O=C(NNc1nc2ccccc2n2cccc12)c1ccc2cc[nH]c2c1 [SC157, 1H-Indole-6-carboxylic acid N′-pyrrolo[1,2-a]quinoxalin-4-yl-hydrazide]
IC50 ([1]; Homo sapiens): > 20 µM | IC50 (HT29 colon cancer cells; Homo sapiens): > 20 µM | IC50 ([2]; Homo sapiens): > 20 µM | IC50 ([3]; Homo sapiens): > 20 µM

Structure (SMILES): C=C1C/C(=C\c2ccc(Cl)cc2)C(=O)N1CC(=O)NNC(=O)c1ccccc1O [SC37]
IC50 (CEM or HEY cells): 15 ± 3 µM

melting point: 248 °C (dec.)
Structure (SMILES): O=C(NNc1nc2cccc(F)c2n2cccc12)c1cnccn1 (as salt: hydrochloride) [SC161′, N′-(9-Fluoropyrrolo[1,2-a]quinoxalin-4-yl)pyrazine-2-carbohydrazide hydrochloride]

Structure (SMILES): O=C(CNC(=O)c1ccccc1O)c1ccc(N2C(=O)c3ccccc3C2=O)cc1 [SC30]
IC50 (CEM or HEY cells): 6.5 ± 1 µM

Structure (SMILES): CC1=NN(C(=O)c2ccccc2O)C(=O)/C1=C/c1ccccc1O [SC26]
IC50 (CEM or HEY cells): 0.06 µM

IC50 ([4]; Homo sapiens, MDA-MB-435, representative breast, colon, and prostate cell lines, MTT assay, read-out: IC50 values range): 8 to 15 µM
Structure (SMILES): O=C(NNc1nc2cc(F)ccc2n2cccc12)c1cnc2ccccc2n1 [SC166′, N′-(7-Fluoropyrrolo[1,2-a]quinoxalin-4-yl)quinoxaline-2-carbohydrazide hydrochloride]

Structure (SMILES): Cl.O=C(NNc1nc2cc(F)ccc2n2cccc12)c1cccnc1 [SC162′, N′-(7-Fluoropyrrolo[1,2-a]quinoxalin-4-yl)nicotinyl hydrazide hydrochloride]
activity in all cell lines [4]: inactive

melting point: 280 °C (dec.)
Structure (SMILES): O=C(NNc1nc2cc(F)ccc2n2cccc12)c1cnc2ccccc2n1 (as salt: hydrochloride) [SC166′, N′-(7-Fluoropyrrolo[1,2-a]quinoxalin-4-yl)quinoxaline-2-carbohydrazide hydrochloride]

Structure (SMILES): NC(CC(=O)NNc1nc2ccccc2n2cccc12)c1ccc(C(F)(F)F)cc1 (stereo not shown) [SC165, 3-Amino-3-(4-trifluoromethyl-phenyl)-propionic acid N′-pyrrolo[1,2-a]quinoxalin-4-yl-hydrazide]
IC50 ([1]; Homo sapiens): > 20 µM | IC50 (HT29 colon cancer cells; Homo sapiens): > 20 µM | IC50 ([2]; Homo sapiens): > 20 µM | IC50 ([3]; Homo sapiens): > 20 µM

melting point: 116 °C
Structure (SMILES): Cc1cc2nc(NNC(=O)c3cnccn3)c3cccn3c2cc1C [SC143, Pyrazine-2-carboxylic acid N′-(7,8-dimethyl-pyrrolo[1,2-a]quinoxalin-4-yl)-hydrazide]

Structure (SMILES): C=C/C=C(\C=C)N1N=C(C)/C(=C/NNC(=O)c2ccccc2)C1=O [SC32]
IC50 (CEM or HEY cells): 2 ± 1 µM

Structure (SMILES): COc1ccc(/C=C2/C(=O)N(C(=O)c3ccccc3O)N=C2C)cc1OC [SC25]
IC50 (CEM or HEY cells): 0.15 µM

Structure (SMILES): CC1=NN(C(=O)c2ccccc2O)C(=O)/C1=C/c1ccc(O)cc1 [SC27]
IC50 (CEM or HEY cells): 0.06 µM

melting point: 160 °C
Structure (SMILES): O=C(NNc1nc2ccccc2n2cccc12)c1ccc2[nH]ccc2c1 [SC156, 1H-Indole-5-carboxylic acid N′-pyrrolo[1,2-a]quinoxalin-4-yl-hydrazide]
IC50 ([1]; Homo sapiens): > 20 µM | IC50 (HT29 colon cancer cells; Homo sapiens): > 20 µM | IC50 ([2]; Homo sapiens): > 20 µM | IC50 ([3]; Homo sapiens): > 20 µM

Structure (SMILES): O=C(NNc1nc2cc(F)ccc2n2cccc12)c1ccccn1 [SC160′, N′-(7-Fluoropyrrolo[1,2-a]quinoxalin-4-yl)pyridine-2-carbohydrazide hydrochloride]
activity in all cell lines [4]: inactive

Structure (SMILES): C=C/C=C(\C=C)N1N=C(C)/C(=C(/NNC(=O)c2ccccc2O)c2ccccc2)C1=O [SC31]
IC50 (CEM or HEY cells): 10 ± 2 µM

Structure (SMILES): O=C(NNc1nc2ccccc2n2cccc12)c1ccccc1F [SC166, 2-Fluoro-benzoic acid N′-pyrrolo[1,2-a]quinoxalin-4-yl-hydrazide]
IC50 ([1]; Homo sapiens): 15 ± 1 µM | IC50 (HT29 colon cancer cells; Homo sapiens): 13 ± 2 µM | IC50 ([2]; Homo sapiens): 8 ± 1 µM | IC50 ([3]; Homo sapiens): 11 ± 1 µM

melting point: 186 °C
Structure (SMILES): O=C(NNc1nc2ccccc2n2cccc12)c1cc2ccccc2[nH]1 [SC155, 1H-indole-2-carboxylic acid N′-pyrrolo[1,2-a]quinoxalin-4-yl-hydrazide]
IC50 ([1]; Homo sapiens): > 20 µM | IC50 (HT29 colon cancer cells; Homo sapiens): > 20 µM | IC50 ([2]; Homo sapiens): > 20 µM | IC50 ([3]; Homo sapiens): > 20 µM

Structure (SMILES): N#Cc1ccc(C(N)CC(=O)NNc2nc3ccccc3n3cccc23)cc1 (stereo not shown) [SC163, 3-Amino-3-(4-cyano-phenyl)-propionic acid N′-pyrrolo[1,2-a]quinoxalin-4-yl-hydrazide]
IC50 ([1]; Homo sapiens): > 20 µM | IC50 (HT29 colon cancer cells; Homo sapiens): > 20 µM | IC50 ([2]; Homo sapiens): > 20 µM | IC50 ([3]; Homo sapiens): > 20 µM

Structure (SMILES): COc1ccc(C(N)CC(=O)NNc2nc3ccccc3n3cccc23)cc1 (stereo not shown) [SC164, 3-Amino-3-(4-methoxy-phenyl)-propionic acid N′-pyrrolo[1,2-a]quinoxalin-4-yl-hydrazide]
IC50 ([1]; Homo sapiens): > 20 µM | IC50 (HT29 colon cancer cells; Homo sapiens): > 20 µM | IC50 ([2]; Homo sapiens): > 20 µM | IC50 ([3]; Homo sapiens): > 20 µM

melting point: 210 to 212 °C
Structure (SMILES): O=C(NNc1nc2ccccc2n2cccc12)c1ccc[nH]1 [SC141, 1H-Pyrrole-2-carboxylic acid N′-pyrrolo[1,2-a]quinoxalin-4-yl-hydrazide]

Structure (SMILES): COc1ccc(NC(=O)NNC(=O)c2c(O)ccc3ccccc23)cc1 [SC36]
IC50 (CEM or HEY cells): 20 µM

Structure (SMILES): COc1ccccc1C(=O)NNc1nc2ccccc2n2cccc12 [SC159, 2-Methoxy-N′-(H-pyrrolo[1,2-a]quinoxalin-4-yl)benzohydrazide]
IC50 [1]: > 20 µM | IC50 (HT29 colon cancer cells): > 20 µM | IC50 [2]: > 20 µM | IC50 [3]: > 20 µM

Structure (SMILES): O=C(CN1C(=O)C/C(=C\c2ccc(Cl)cc2)C1O)NNC(=O)C1=CCCC=C1O (stereo not shown) [SC28]
IC50 (CEM or HEY cells): 10 ± 2 µM

Structure (SMILES): O=C(NNc1nc2cc(F)ccc2n2cccc12)c1ccccn1 (as salt: hydrochloride) [SC160′, N′-(7-Fluoropyrrolo[1,2-a]quinoxalin-4-yl)pyridine-2-carbohydrazide hydrochloride]
melting point: > 280 °C (dec.)

Structure (SMILES): O=C(NNC(=O)c1ccccc1O)c1ccccc1O [SC20]
IC50 (CEM or HEY cells): 0.1 ± 0.01 µM

Structure (SMILES): O=C(/C=C/NNC(=O)c1ccccc1O)c1ccccc1 [SC33]
IC50 (CEM or HEY cells): 20 µM
